Details: Fluid (supercritical or subcritical phases), Coaxial cylinder method

CCC [propane]
Details | thermal conductivity [W/m/K]
375.1 K, 4950 kPa | 0.06533
375.1 K, 5040 kPa | 0.06533
375.1 K, 5140 kPa | 0.0653
375.1 K, 5160 kPa | 0.06529
375.1 K, 5226 kPa | 0.06525
375.1 K, 5322 kPa | 0.06576
375.1 K, 5580 kPa | 0.06644
375.1 K, 5830 kPa | 0.06691
375.1 K, 6480 kPa | 0.06842
375.1 K, 6540 kPa | 0.06846
375.1 K, 7140 kPa | 0.06958
375.1 K, 8020 kPa | 0.07114
375.1 K, 8950 kPa | 0.07271
375.1 K, 9500 kPa | 0.07355
375.1 K, 9700 kPa | 0.0739
375.1 K, 10360 kPa | 0.075
375.9 K, 3110 kPa | 0.03373
375.9 K, 3134 kPa | 0.0338
375.9 K, 3250 kPa | 0.03412
375.9 K, 3300 kPa | 0.03433
375.9 K, 3550 kPa | 0.03563
375.9 K, 3600 kPa | 0.03595
375.9 K, 3800 kPa | 0.03747
375.9 K, 4000 kPa | 0.03934
375.9 K, 4050 kPa | 0.03986
375.9 K, 4125 kPa | 0.04091
375.9 K, 4250 kPa | 0.04345
375.9 K, 4350 kPa | 0.04589
375.9 K, 4400 kPa | 0.04729
375.9 K, 4450 kPa | 0.04877
375.9 K, 4510 kPa | 0.05175
375.9 K, 4540 kPa | 0.0535
375.9 K, 4560 kPa | 0.05503
375.9 K, 4570 kPa | 0.05607
375.9 K, 4580 kPa | 0.05714
375.9 K, 4590 kPa | 0.05826
375.9 K, 4600 kPa | 0.05949
375.9 K, 4620 kPa | 0.06128
375.9 K, 4630 kPa | 0.06278
375.9 K, 4640 kPa | 0.06448
375.9 K, 4650 kPa | 0.06572
375.9 K, 4660 kPa | 0.06701
375.9 K, 4670 kPa | 0.06835
375.9 K, 4680 kPa | 0.06967
375.9 K, 4690 kPa | 0.07058
375.9 K, 4700 kPa | 0.07156
375.9 K, 4720 kPa | 0.07283
375.9 K, 4740 kPa | 0.07257
375.9 K, 4760 kPa | 0.07206
375.9 K, 4780 kPa | 0.07106
375.9 K, 4800 kPa | 0.0705
375.9 K, 4820 kPa | 0.06995
375.9 K, 4840 kPa | 0.06936
375.9 K, 4880 kPa | 0.06835
375.9 K, 4950 kPa | 0.06708
375.9 K, 5050 kPa | 0.06621
375.9 K, 5100 kPa | 0.0662
375.9 K, 5200 kPa | 0.06603
375.9 K, 5250 kPa | 0.06588
375.9 K, 5500 kPa | 0.06634
375.9 K, 5550 kPa | 0.06631
375.9 K, 5700 kPa | 0.06671
375.9 K, 5820 kPa | 0.06682
375.9 K, 5900 kPa | 0.06696
375.9 K, 6000 kPa | 0.06714
375.9 K, 6200 kPa | 0.06746
375.9 K, 6800 kPa | 0.06884
375.9 K, 7200 kPa | 0.0696
375.9 K, 7800 kPa | 0.07056
375.9 K, 8500 kPa | 0.072
375.9 K, 9000 kPa | 0.07288
375.9 K, 9190 kPa | 0.07314
375.9 K, 9806 kPa | 0.07405
375.9 K, 10000 kPa | 0.07439
375.9 K, 11000 kPa | 0.07591
375.9 K, 11028 kPa | 0.07597
375.9 K, 11500 kPa | 0.0765
375.9 K, 12000 kPa | 0.07724
375.9 K, 13000 kPa | 0.07845
381 K, 3253 kPa | 0.03426
381 K, 3260 kPa | 0.03429
381 K, 3320 kPa | 0.03451
381 K, 3428 kPa | 0.03498
381 K, 3580 kPa | 0.03558
381 K, 3820 kPa | 0.03665
381 K, 3880 kPa | 0.03705
381 K, 4040 kPa | 0.03825
381 K, 4100 kPa | 0.0389
381 K, 4220 kPa | 0.04027
381 K, 4520 kPa | 0.04459
381 K, 4560 kPa | 0.04539
381 K, 4600 kPa | 0.04618
381 K, 4660 kPa | 0.04756
381 K, 4740 kPa | 0.04988
381 K, 4780 kPa | 0.05126
381 K, 4800 kPa | 0.05187
381 K, 4860 kPa | 0.05418
381 K, 4880 kPa | 0.05506
381 K, 4900 kPa | 0.05594
381 K, 4920 kPa | 0.05685
381 K, 4960 kPa | 0.05866
381 K, 5000 kPa | 0.06046
381 K, 5020 kPa | 0.06124
381 K, 5040 kPa | 0.06198
381 K, 5060 kPa | 0.06268
381 K, 5100 kPa | 0.06374
381 K, 5150 kPa | 0.06448
381 K, 5200 kPa | 0.06448
381 K, 5250 kPa | 0.06475
381 K, 5300 kPa | 0.06444
381 K, 5350 kPa | 0.06439
381 K, 5390 kPa | 0.06427
381 K, 5450 kPa | 0.06435
381 K, 5550 kPa | 0.06436
381 K, 5700 kPa | 0.06435
381 K, 5900 kPa | 0.06423
381 K, 6200 kPa | 0.06503
381 K, 6500 kPa | 0.06554
381 K, 6900 kPa | 0.0664
381 K, 7162 kPa | 0.06699
381 K, 7300 kPa | 0.06714
381 K, 7583 kPa | 0.06767
381 K, 9036 kPa | 0.07035
381 K, 10110 kPa | 0.07235
381 K, 11000 kPa | 0.07371
381 K, 12000 kPa | 0.07531
381 K, 14750 kPa | 0.07855

From the NIST ThermoML archive (doi:10.1021/je500395f)
